US20250213587A1, “ITK INHIBITORS FOR INCREASING TH1 CELL ACTIVITY” (Corvus Pharmaceuticals, Inc., priority 2022, published 2025)
Entries after “also recorded” stand apart in the source; their conditions may differ.

Tests used:
ITK = target: T1, ITK (Homo sapiens, UniProt Q08881); experiment: Jump dilution assay; assay type: binding; parameters: purchased Invitrogen
T1 sequence (Q08881 1-620): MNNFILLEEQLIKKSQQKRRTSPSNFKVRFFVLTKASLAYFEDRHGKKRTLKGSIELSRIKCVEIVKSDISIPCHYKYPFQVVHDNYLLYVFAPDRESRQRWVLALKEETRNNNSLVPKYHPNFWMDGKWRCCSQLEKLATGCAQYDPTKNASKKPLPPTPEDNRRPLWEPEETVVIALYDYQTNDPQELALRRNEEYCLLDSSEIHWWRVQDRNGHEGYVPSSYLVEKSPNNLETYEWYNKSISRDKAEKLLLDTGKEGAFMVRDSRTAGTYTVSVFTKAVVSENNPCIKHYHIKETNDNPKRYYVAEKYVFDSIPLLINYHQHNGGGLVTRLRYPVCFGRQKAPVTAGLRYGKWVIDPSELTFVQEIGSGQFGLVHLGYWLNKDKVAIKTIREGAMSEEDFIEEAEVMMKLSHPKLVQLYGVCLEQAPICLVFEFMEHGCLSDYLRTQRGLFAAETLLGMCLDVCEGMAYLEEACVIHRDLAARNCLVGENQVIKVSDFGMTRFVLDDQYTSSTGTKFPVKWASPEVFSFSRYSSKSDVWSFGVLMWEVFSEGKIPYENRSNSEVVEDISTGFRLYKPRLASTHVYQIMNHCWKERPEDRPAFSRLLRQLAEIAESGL
Description: The assay format is similar to the Competitive Tracer-binding Assay and relies on the reversible binding of tracer 236 to recombinant tagged human ITK. […] The mixture was then filtered through a desalting column (Thermo Scientific, Zeba Spin Desalting Column, 40K MWCO) to remove unbound inhibitor. The assay was initiated immediately after the desalting step by diluting the eluate containing the inhibited kinase complex 50-fold into a solution of anti-tag antibody (2 nM final) and excess tracer 236 (40 nM final). Dissociation of inhibitor and binding of tracer was monitored immediately after assay initiation using an EnVision plate reader (excitation 340 nm, dual emission at 665 nm and 615 nm). Reagents including GST-tagged recombinant human ITK, Kinase tracer 236, Lanthascreen Eu-Anti-GST antibody and kinase buffer A were purchased from ThermoFisher Scientific/Invitrogen. Each data point represents the mean of technical triplicates. Equation 3 was fitted to the BMS-509744 data to obtain the rate constant using GraphPad Prism from which the half-life was calculated.

other TEC kinases = conditions: literature; cited from earlier work

| half-life of inhibitor-ITK complex (ITK; dilution into excess tracer 236) [min] | SMILES | reversibility of ITK inhibition on dilution (ITK; dilution into competitive probe) | inhibition of other TEC kinases (other TEC kinases) |
| --- | --- | --- | --- |
| 2.6 | COc1cc(C)c(Sc2cnc(NC(=O)c3ccc(CNC(C)C(C)(C)C)cc3)s2)cc1C(=O)N1CCN(C(C)=O)CC1 (stereo not drawn) [BMS-509744, reference compound] | reversible; also recorded: rapid dissociation | – |
| – | C=CC(=O)N1CCC[C@@H]1Cn1c(NC(=O)c2ccc(C(F)F)s2)nc2cc(CN[C@@H](C)C(C)(C)C)ccc21 [PRN694] | – | significant inhibition |
